Here are results for 3 molecules from article PMC3543460, “Structure-Activity Relationships of the Antimicrobial Peptide Arasin 1 — And Mode of Action Studies of the N-Terminal, Proline-Rich Region” (PLoS ONE, 2013).

Values after ≈ are worked out from the molar mass of the structure shown. Peptide text beside a SMILES is read from it. * marks the point of attachment. Acm = CC(=O)NC*

The term IC50 denotes the concentration that gives 50% inhibition. A lower IC50 goes with greater potency.

One assay deals with S. cerevisiae spp. The format is cell-based, Saccharomyces cerevisiae. To be noted: 48 h. The procedure:
(§1) Escherichia coli (ATCC 25922), E. coli HB101, Pseudomonas aeruginosa (ATCC 27853), Staphylococcus aureus (ATCC 9144) and Corynebacterium glutamicum (ATCC 13032) were grown at 37°C in Mueller Hinton agar (MH; Difco Laboratories, Detroit, USA). The yeasts Candida albicans (ATCC 10231) and Saccharomyces cerevisiae spp and the mold Botrytis cinerea 101 [33] were cultivated on potato dextrose agar supplemented with 2% glucose at room temperature (RT).
(§2) Fungal spores were dissolved in potato dextrose broth (Difco, Lawrence, KS, USA) and the cell concentration was determined and adjusted after counting in a Bürker chamber. Botrytis cinerea was filtered through a piece of cotton before counting. An aliquot of 50 µl of fungal spores (final concentration 2×10^5 spores/ml) were inoculated in 96-well Nunclon™ microtitre plates (Nagle Nunc Int. Roskilde, Denmark) along with 50 µl of synthetic peptide dissolved in Milli-Q water. Cultures were grown in a dark moist chamber without shaking at 20°C for S. cerevisiae and B. cinerea, and at 37°C for C. albicans. Growth inhibition was determined microscopically after 48 h of incubation. Inhibitory concentrations (IC50) was defined as the lowest concentration tested which yielded less than 50% visible growth compared to the growth control (fungi). Each peptide was tested in parallels in three individual runs for the antimicrobial assays.

A further assay concerns S. aureus ATCC 9144. The format is cell-based, Staphylococcus aureus. To be noted: ATCC 9144, 24 h. The procedure: as §1
(§3) Determination of the MIC against bacteria was performed by continuous monitoring of bacterial growth using a Bioscreen C microbiology reader (Labsystems Oy, Helsinki, Finland). The synthetic peptides were tested for antibacterial and antifungal activity at final concentrations (prepared from serial two-fold dilutions) ranging from 0.2 µM to 100 µM. The test was performed in 100-well flat-bottomed honeycomb plates, in which 50 µl peptide solution was incubated with 50 µl of a suspension of an actively growing culture of bacteria diluted to a starting concentration of 2.5×10^5 CFU/ml in Mueller Hinton Broth (MHB). The growth chamber was maintained at 37°C during the incubation period. The absorbance was measured by a turbidometric method with vertical light photometry and a wide band filter (420–580 nm). MIC was defined as the lowest concentration resulting in no visible bacterial growth after 24 h.

Assay [1] relates to E. coli HB101. In words: Membrane integrity assay II (propidium iodide, flow cytometry). To be noted: 50% MH, 37°C, four independent experiments. Type of assay: cell-based, Escherichia coli. The procedure:
The effect of arasin 1(1–23) and cecropin P1 on membrane permeabilization was also studied by measuring the percentage of propidium iodide (PI) positive cells by flow cytometry. Samples of 1×10^6 cells/ml of E. coli HB101 were incubated in 50% MH with peptides at 37°C for different time span. After incubation, PI (Sigma Aldrich, Saint Louis, MO, USA) was added to the peptide-treated bacteria at a final concentration of 10 µg/ml. The cells were analyzed after 4 min of incubation with PI at 37°C in the flow cytometer as described.
In general terms: In flow cytometry, cells or beads pass a laser one at a time.

In the next assay the test system is P. aeruginosa ATCC 27853. The format is cell-based, Pseudomonas aeruginosa. To be noted: ATCC 27853, 24 h. The procedure:
as §1, §3

The subject of the next assay is C. albicans ATCC 10231. Type of assay: cell-based, Candida albicans. To be noted: ATCC 10231, 48 h. The procedure:
as §1, §2

The test system of assay [2] is E. coli HB101 constitutively expressing the luxCDABE operon. The assay is described as follows: Cell viability assay (luxCDABE luminescence). Type of assay: cell-based, Escherichia coli. To be noted: 50% MH, OD600 0.2, 30°C. The procedure: E.coli HB101 was transformed with the plasmid pCGLS-11 to enable constitutive bacterial luciferase expression from the luxCDABE operon. The resulting strain was used for cell viability assays as follows. An overnight culture in MH medium with ampicillin (100 µg/ml) was pelleted at 3000×g for 10 min and washed in MH medium before re-suspending the cells in 50% MH medium with a final OD600 of approximately 0.2. After 30 min of incubation at 30°C the cells were again adjusted to an OD600 of 0.2. An aliquot of 95 µl of bacterial solution was dispensed into each well of a black 96 well microtiter plate with transparent bottom (Falcon, Bredford, MA, USA). To achieve the indicated concentrations, a multi-channel pipette was used to add 5 µl of a two-fold dilution series of peptide solution in water to 8 wells simultaneously. The plate was loaded into a Perkin-Elmer Envision microtiter plate reader immediately after addition of the peptide (arasin 1(1–23), PR-39(1–26) or cecropin P1) and the measurement started 30 sec later because of handling events and 2 seconds of shaking inside the plate reader. Light production and growth (OD595) of the sensor bacteria was followed for 3 h under repeated shaking cycles before each measurement at 30°C.

The next assay relates to B. cinerea 101. The format is cell-based, Botrytis cinerea. To be noted: 101, 48 h. The procedure:
as §1, §2

The test system of another assay is E. coli ATCC 25922. The format is cell-based, Escherichia coli. To be noted: ATCC 25922, 24 h. The procedure:
as §1, §3

The subject of a further assay is C. glutamicum ATCC 13032. The format is cell-based, Corynebacterium glutamicum. To be noted: ATCC 13032, 24 h. The procedure:
as §1, §3

Another assay in a line: Chitin-binding assay. To be noted: 50 µg peptide with 40 mg chitin, washes with 0.1 M NaCl, 1 M NaCl, 10% acetic acid at 95°C; RP-HPLC of supernatants. The procedure: The ability of arasin 1(1–23) and arasin 1(20–37)-Acm to bind chitin was estimated using a modified protocol from Kawabata et al.. Briefly, 50 µg of peptide was incubated with 40 mg chitin in 800 µl buffer (50 mM Tris-HCl, 0.1 M NaCl, pH 8.0). Sequentially chitin was incubated at RT with 800 µl buffer containing 0.1 M NaCl and 1 M NaCl, respectively, and finally at 95°C with 10% acetic acid. All incubations were performed for 10 min, and chitin was collected by centrifugation at 1000×g for 5 min between each step. Supernatants were subjected to RP-HPLC using a Sunfire™ Prep C18 column (Waters; 100 Å 5 µm; 10×250 mm, MA, USA), with a linear gradient from 8 to 60% acetonitrile and a flow of 3 ml/min over 60 min. Absorbance was monitored at 220 nm and the resulting chromatograms were compared.

For assay [3], the system named is E. coli HB101 expressing eukaryotic luciferase lucGR. The assay is described as follows: Membrane integrity assay I (D-luciferin influx, lucGR luciferase). Type of assay: cell-based, Escherichia coli. The text has this: Escherichia coli HB101 was transformed with the plasmids pCSS962 and the helper plasmid pGB3 to allow for constitutive expression of the eukaryotic luciferase gene lucGR. The resulting strain was isogenic to the other E. coli strains used. The membrane permeabilization assay used is a modification of the protocol described by Virta et al.. The assay is based on E. coli cells, expressing a eukaryotic luciferase, depending on externally added D-luciferin as a substrate to emit light. At neutral pH the bacterial cytoplasmic membrane efficiently prevents uptake of external D-luciferin. However, disruption of the membrane by e.g. a membrane active AMP enhances D-luciferin influx and thereby induces bacterial light emission. Preparation of the cells and the assay plate was done as described for the viability assay above. However, chloramphenicol (30 µg/ml) was added in addition to ampicillin to the overnight culture, and D-luciferin sodium-salt (Biosynth, Staad, Switzerland) was added to the bacteria to final concentration of 1 mM. To allow shorter measurement intervals, only 8 wells were measured simultaneously. Arasin 1(1–23), PR-39(1–26) and cecropin P1 were tested for their membrane disruptive capacity.

Assay [4] concerns E. coli HB101. The assay is described as follows: Bactericidal assay (killing kinetics, colony counts). The format is cell-based, Escherichia coli. To be noted: 50% MHB, 1×10^6 CFU/ml, 37°C. The procedure:
During incubation, aliquots were removed at different time intervals, washed in buffered high salt solution (10 mM Na-phosphate, 400 mM NaCl, 10 mM MgCl2), diluted and plated on MH plates. The number of bacterial CFU was determined after approximately 48 h of incubation at 37°C.

A further assay concerns E. coli. In words: Antimicrobial activity at varied MH concentration. The format is cell-based, Escherichia coli. To be noted: results not shown. The text has this: In contrast to the results from E. coli and P. aeruginosa, the C-terminal part of arasin 1(1–23) alone arasin 1(7–23) and 1(9–23) inhibits C. glutamicum and all the fungi. At the same time this antibacterial and antifungal activity is strictly dependent on a fragment between aa 13–23. This indicates a somewhat different mode of action for Gram- negative and Gram-positive bacteria, respectively. Likewise the mode of action against fungi is likely different. It is tempting to speculate that the N-terminal 5–10 amino acids might be involved in arasin 1(1–23) transfer across the outer membrane while the C-terminal part might bind the molecular target which is responsible for growth inhibition at low concentrations. The antimicrobial assays were all performed in MH or potato dextrose medium at a final concentration of 50% strength for bacteria and fungi, respectively. […] This means that the peptides are very sensitive to medium composition, and perhaps also salinity and/or ionic strength. […] In some studies, the use of diluted or poor medium instead of rich medium in MIC and mode of action studies is claimed to increase the sensitivity of the assays, [47]. The reasons of the medium-dependence have not been further evaluated, and 50% MH was used as the standard medium for the mode of action studies.

For the molecule `CC[C@H](C)[C@H](NC(=O)[C@@H]1CCCN1C(=O)[C@H](CCCCN)NC(=O)[C@@H]1CCCN1C(=O)[C@H](CCCNC(=N)N)NC(=O)CNC(=O)[C@@H]1CCCN1C(=O)[C@H](Cc1ccccc1)NC(=O)[C@@H]1CCCN1C(=O)[C@H](CCCNC(=N)N)NC(=O)[C@@H]1CCCN1C(=O)[C@H](CCCNC(=N)N)NC(=O)CNC(=O)[C@@H]1CCCN1C(=O)[C@H](CO)NC(=O)[C@@H]1CCCN1C(=O)[C@H](Cc1c[nH]c2ccccc12)NC(=O)[C@H](CCCNC(=N)N)NC(=O)[C@@H](N)CO)C(=O)N[C@@H](Cc1ccccc1)C(=O)N[C@@H](CCCNC(=N)N)C(=O)N1CCC[C@H]1C(=O)N[C@@H](CCCNC(=N)N)C(=O)O` [Arasin 1(1–23)] (H-SRWPSPGRPRPFPGRPKPIFRPR-OH; N-terminus and C-terminus assumed), the IC50 in the assay with S. cerevisiae spp., in the assay with C. albicans ATCC 10231 and in the assay on B. cinerea 101 was 12.5 µM each time. Also, the “MIC S. aureus ATCC 9144” value in the assay with S. aureus ATCC 9144 was greater than 100 µM. Moreover, the “PI-positive (permeabilized) cells” value with E. coli HB101 [1] (peptide at 5×MIC (20 µM), 1×10^6 cells/ml) is recorded as 30%; with E. coli HB101 [1] (peptide at 10×MIC (40 µM), after 15 min of treatment), “approximately 75%”; with E. coli HB101 [1] (peptide at MIC (4 µM), 1×10^6 cells/ml, background subtracted), roughly 10%. Besides, in the assay on P. aeruginosa ATCC 27853, the “MIC P. aeruginosa ATCC 27853” value was 12.5 µM (≈ 34.3 µg/mL). In addition, the “luminescence compared to untreated bacteria” value in [2] (after 10 min, at 10-fold MIC) was “more than 60%”; in assay [2] (at MIC values (5 µM)), “more than 80%”. Also, the “MIC E. coli ATCC 25922” value in the assay on E. coli ATCC 25922 is 6.3 µM (≈ 17.3 µg/mL). The “MIC C. glutamicum ATCC 13032” value in the assay on C. glutamicum ATCC 13032 was determined as 0.8 µM (≈ 2.19 µg/mL). Also, the binding to chitin result in “Chitin-binding assay” is “strong binding of the peptide to chitin”. Also, the “light emission (D-luciferin influx) at concentrations above MIC” value in assay [3] (1 mM D-luciferin) is reported as “doubling of light emission”. Further, the “light emission (D-luciferin influx) at concentration around MIC” value in [3] (compared with cecropin P1 treatment, 1 mM D-luciferin) is “Minimal amounts of light”. Moreover, the “time at which permeabilization peaked” value in [3] (high concentrations of peptide) is “approximately 10 min”. Further, the “effect on viable cell count at MIC” value in the assay on E. coli HB101 [4] (4 µM (MIC), up to 4 h) is “inhibition of bacterial growth without decreasing the number of viable cells”. Moreover, in the assay on E. coli HB101 [4] (20 µM (5×MIC), after 30 min), the “reduction of viable E. coli cells” value is on record as 1 log.

For the molecule `CC(=O)NCSC[C@H](NC(=O)[C@H](CC(N)=O)NC(=O)[C@H](CSCNC(C)=O)NC(=O)[C@@H]1CCCN1C(=O)[C@H](CCCNC(=N)N)NC(=O)[C@@H]1CCCN1C(=O)[C@H](CCCNC(=N)N)NC(=O)[C@@H](N)Cc1ccccc1)C(=O)N[C@@H](Cc1ccc(O)cc1)C(=O)N[C@@H](C)C(=O)N1CCC[C@H]1C(=O)N1CCC[C@H]1C(=O)N[C@@H](CSCNC(C)=O)C(=O)N1CCC[C@H]1C(=O)N[C@@H](CSCNC(C)=O)C(=O)N[C@@H](CC(=O)O)C(=O)N[C@@H](CCCNC(=N)N)C(=O)N[C@@H](Cc1c[nH]c2ccccc12)C(=O)O` [Arasin 1(20–37)-Acm] (H-FRPRPC(Acm)NC(Acm)YAPPC(Acm)PC(Acm)DRW-OH; N-terminus and C-terminus assumed), the half-inhibitory concentration (IC50) with S. cerevisiae spp., in the assay on C. albicans ATCC 10231 and in the assay with B. cinerea 101 was greater than 100 µM in each case. Besides, the “MIC S. aureus ATCC 9144” value in the assay on S. aureus ATCC 9144 is greater than 100 µM. Besides, in the assay on P. aeruginosa ATCC 27853, the “MIC P. aeruginosa ATCC 27853” value was greater than 100 µM. Besides, the “MIC E. coli ATCC 25922” value against E. coli ATCC 25922 is greater than 100 µM. The “MIC C. glutamicum ATCC 13032” value in the assay on C. glutamicum ATCC 13032 is recorded as greater than 100 µM. Moreover, in “Chitin-binding assay”, the binding to chitin entry is “did not bind tightly to chitin”.

Turning to “Bac7(1–16): fragment of the mammalian proline-rich antimicrobial peptide Bac7 (RRIRPRPPRLPRPRPR; Bactenecin 7; UniProt P19661 131-146, looked up, fragment)”, the “change of antimicrobial activity against E. coli by varying the MH concentration” value with E. coli is on record as “did not change the antimicrobial activity”.
